One series concerns the target T1, hKv1.2 channel (Homo sapiens, UniProt P16389).
T1 construct: expressed in transfected cells; host or cells: HEK293T
As to the kind of experiment: Whole-cell patch clamp, hKv1.2 channel overexpressed in HEK293T cells. Format: cell-based. As to conditions: mean ± S.E., n ≥ 3, SEM. Here is the method: (§1) To investigate the electrophysiological activities of BmK86-P1, the whole-cell patch clamp technique was applied to test the effects of BmK86-P1 on multiple potassium channels. The hKv1.1, hKv1.2, hKv1.3, hKv1.6, hKv3.2, mKv4.1, rKv4.2, rKv4.3 and hERG channels were overexpressed in HEK293T cells, then the inhibitory effects of BmK86-P1 at 1 μM on these potassium channels were measured. […] To further investigate the affinity of BmK86-P1 inhibiting the hKv1.2 channel, a dose-dependent study was performed by examining the inhibitory effects of different concentrations of BmK86-P1.
(§2) All potassium channel expression vectors were given by others or constructed by ourselves. HEK293T cells were cultured in Dulbecco’s modified Eagle medium (Gibco, Pittsburgh, PA, USA) with 10% fetal bovine serum and penicillin/streptomycin (100 units/mL) in a 5% CO2 incubator at 37 °C. Potassium channel expression vectors and pEGFP-N1 were co-transfected into HEK293T cells using TurboFect in vitro Transfection Reagent (Thermo Scientific, Waltham, MA, USA) according to the manufacturer’s instructions. The potassium currents were recorded after transfection for 1 to 3 days.
The channel currents were measured and recorded by whole-cell patch clamp technology according to previously published references. The internal patch pipette solution and the bath solution were prepared as previously described. All the test peptides were dissolved into bath solution supplemented with 0.01% BSA. An MPS-2 multichannel microperfusion system (INBIO Inc., Wuhan, China) was applied to change the external recording bath solution. The infusion time of the peptides should not exceed 20 min to maintain good cell conditions during electrophysiological recordings. The channel currents were recorded at room temperature (~25 °C) using an EPC 10 patch clamp amplifier. The results were presented as the means ± S.E., and in every sample at least three cells (n ≥ 3) were examined.
(§3) The ClampFit (Molecular Devices, Sunnyvale, CA, USA) and SigmaPlot software ([…], Chicago, IL, USA) were used to analyze the recorded data. […]
On the technique in general: Patch clamp records ionic current or voltage across a cell membrane.

The next series concerns the target T2, hKv1.6 channel (Homo sapiens, UniProt P17658).
T2 construct: expressed in transfected cells; host or cells: HEK293T
The experiment in a line: Whole-cell patch clamp, hKv1.6 channel overexpressed in HEK293T cells. Format: cell-based. The following applies: 1 μM peptide, mean ± S.E., n ≥ 3, SEM. Here is the method:
as §1
(§4) All potassium channel expression vectors were given by others or constructed by ourselves. HEK293T cells were cultured in Dulbecco’s modified Eagle medium (Gibco, Pittsburgh, PA, USA) with 10% fetal bovine serum and penicillin/streptomycin (100 units/mL) in a 5% CO2 incubator at 37 °C. […] The potassium currents were recorded after transfection for 1 to 3 days.
(§5) The channel currents were measured and recorded by whole-cell patch clamp technology according to previously published references. […] The channel currents were recorded at room temperature (~25 °C) using an EPC 10 patch clamp amplifier. […]
as §3

The target in another series is T3, rKv4.2 channel (Rattus norvegicus, UniProt Q63881).
T3 construct: expressed in transfected cells; host or cells: HEK293T
T3 sequence (Q63881 1-630): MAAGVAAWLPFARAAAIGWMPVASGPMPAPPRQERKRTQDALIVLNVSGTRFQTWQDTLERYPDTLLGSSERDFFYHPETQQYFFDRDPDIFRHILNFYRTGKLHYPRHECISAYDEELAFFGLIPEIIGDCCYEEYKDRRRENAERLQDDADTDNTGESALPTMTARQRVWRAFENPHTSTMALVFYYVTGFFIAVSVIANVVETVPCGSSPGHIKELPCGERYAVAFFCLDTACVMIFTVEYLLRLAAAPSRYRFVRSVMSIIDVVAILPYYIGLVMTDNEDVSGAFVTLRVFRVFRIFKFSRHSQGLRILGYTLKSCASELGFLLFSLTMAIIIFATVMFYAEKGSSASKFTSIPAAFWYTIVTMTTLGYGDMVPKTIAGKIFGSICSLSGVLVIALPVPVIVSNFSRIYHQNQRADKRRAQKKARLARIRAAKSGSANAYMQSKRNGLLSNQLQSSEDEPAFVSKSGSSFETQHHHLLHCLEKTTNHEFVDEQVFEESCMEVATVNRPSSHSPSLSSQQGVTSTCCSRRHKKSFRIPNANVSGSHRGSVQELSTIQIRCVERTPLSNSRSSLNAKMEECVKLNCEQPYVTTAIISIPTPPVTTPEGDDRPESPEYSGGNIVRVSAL
As to the kind of experiment: Whole-cell patch clamp, rKv4.2 channel overexpressed in HEK293T cells. Format: cell-based. The following applies: 1 μM peptide, mean ± S.E., n ≥ 3, SEM. Here is the method:
as §1, §4, §5, §3

The target of the next series is T4, hKv1.2-P359S (Homo sapiens, UniProt P16389, P359S).
T4 construct: expressed in transfected cells; host or cells: HEK293T
T4 sequence (P16389 whole entry P359S): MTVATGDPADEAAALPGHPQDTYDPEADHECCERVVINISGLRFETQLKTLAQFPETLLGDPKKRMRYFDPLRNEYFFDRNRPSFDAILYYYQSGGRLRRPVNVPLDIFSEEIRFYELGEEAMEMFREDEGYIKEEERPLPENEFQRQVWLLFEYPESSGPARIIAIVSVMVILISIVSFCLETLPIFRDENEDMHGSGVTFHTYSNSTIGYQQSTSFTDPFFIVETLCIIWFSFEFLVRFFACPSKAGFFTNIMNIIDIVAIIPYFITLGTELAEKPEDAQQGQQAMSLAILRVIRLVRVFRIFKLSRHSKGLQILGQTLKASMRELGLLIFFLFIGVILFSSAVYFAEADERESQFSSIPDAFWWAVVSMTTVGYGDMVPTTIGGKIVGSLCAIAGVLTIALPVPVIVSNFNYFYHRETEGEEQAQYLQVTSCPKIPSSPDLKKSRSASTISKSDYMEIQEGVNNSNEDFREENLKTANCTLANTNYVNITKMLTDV
The experiment in a line: Whole-cell patch clamp, hKv1.2 channel mutant P359S. Format: cell-based. The following applies: 100 nM peptide, HEK293T, mean ± S.E., n ≥ 3, SEM. Here is the method: To determine the functional sites of the hKv1.2 channel responsible for the selectivity of BmK86-P1, six hKv1.2 mutants were obtained based on sequence differences between the pore regions of the hKv1.2 and hKv1.1 channels (Figure 4A). Then, the activities of 100 nM BmK86-P1 on these six mutant channels were tested. […] The other three mutant channels (hKv1.2-D352E, hKv1.2-R354A and hKv1.2-P359S) still kept similar sensitivities toward BmK86-P1 compared with the wild-type hKv1.2 channel (Figure 4H,I,K,N).
as §2, §5

Series [1] is described as follows: Thermal stability of secondary structure by CD spectroscopy. Format: physicochemical. As to conditions: 0.2 mg/mL in ddH2O, 20, 35, 50, 65, 80 and 95 °C, then returned to 20 °C, average of three scans. As to the method:
In order to characterize the thermal stability of BmK86-P1, we analyzed the secondary structure of BmK86-P1 peptide in aqueous solutions at different temperatures (20 °C, 35 °C, 50 °C, 65 °C, 80 °C and 95 °C) by CD spectroscopy.
The secondary structures of BmK86-P1 and its mutants in water were measured by circular dichroism (CD) spectroscopy as previously described using a ChirascanTM V^100 spectrometer (Applied Photophysics, Surrey, UK). All the peptides were dissolved into ddH2O at a concentration of 0.2 mg/mL. At a range of wavelengths from 180 to 260 nm, the absorption spectra of peptides were recorded at room temperature. The speed scanning was 1 nm/s with a response time of 1 s. […] (deg·cm^2·dmol^−1).

Positions of bridges follow the written chain, without caps; N, C: chain ends. Residues, ends and D or L forms follow the SMILES beside them.

T1 sequence (P16389 whole entry): as the sequence (P16389 whole entry P359S) above, with S359P counted along it
T2 sequence (P17658 whole entry): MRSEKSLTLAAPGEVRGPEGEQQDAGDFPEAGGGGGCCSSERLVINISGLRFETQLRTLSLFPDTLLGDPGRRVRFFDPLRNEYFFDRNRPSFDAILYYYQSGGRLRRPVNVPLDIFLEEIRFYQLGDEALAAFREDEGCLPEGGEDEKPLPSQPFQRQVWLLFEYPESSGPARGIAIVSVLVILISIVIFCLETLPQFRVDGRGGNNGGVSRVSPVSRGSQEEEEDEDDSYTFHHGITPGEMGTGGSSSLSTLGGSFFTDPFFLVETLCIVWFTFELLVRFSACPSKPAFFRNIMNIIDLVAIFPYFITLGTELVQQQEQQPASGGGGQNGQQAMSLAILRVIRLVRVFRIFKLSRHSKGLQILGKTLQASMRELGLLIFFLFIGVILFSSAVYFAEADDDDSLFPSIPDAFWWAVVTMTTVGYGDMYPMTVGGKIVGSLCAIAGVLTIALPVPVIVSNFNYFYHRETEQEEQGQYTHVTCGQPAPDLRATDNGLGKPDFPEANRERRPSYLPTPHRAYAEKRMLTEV

What is called IC50 is the midpoint of a concentration-inhibition curve. As to `CC[C@H](C)[C@@H]1NC(=O)[C@@H]2CSSC[C@H](NC(=O)[C@H](C)N)C(=O)N[C@@H](CO)C(=O)N[C@@H](CCCCN)C(=O)N3CCC[C@H]3C(=O)N[C@H]3CSSC[C@H](NC(=O)[C@H](CCCNC(=N)N)NC(=O)CNC(=O)[C@H](CC(N)=O)NC1=O)C(=O)N[C@@H](Cc1c[nH]cn1)C(=O)N[C@H](C(=O)N[C@@H](Cc1ccc(O)cc1)C(=O)N[C@@H](Cc1ccc(O)cc1)C(=O)O)CSSC[C@H](NC(=O)[C@H](Cc1ccc(O)cc1)NC(=O)[C@H](CCCCN)NC(=O)[C@H](CCCNC(=N)N)NC3=O)C(=O)N[C@@H]([C@@H](C)CC)C(=O)N[C@@H](CC(=O)O)C(=O)N[C@@H](CCCCN)C(=O)NCC(=O)N[C@@H](C)C(=O)N[C@@H](CCCNC(=N)N)C(=O)N[C@@H](CC(N)=O)C(=O)NCC(=O)N[C@@H](CCCCN)C(=O)N2` [BmK86-P1] (H-ACSKPCRKYCIDKGARNGKCINGRCHCYY-OH; disulfide 2-20, 6-25, 10-27 (inferred); N-terminus and C-terminus assumed), the “inhibition of hKv1.2 channel currents” value against hKv1.2 channel (100 nM peptide) is 74.1 ± 3.2%; against hKv1.2 channel (1 μM peptide, room temperature (~25 °C)), 88.6 ± 2.2%. For the same compound, the IC50 at hKv1.2 channel (dose-response curve fitted with Hill equation, read-out: IC50, inhibition of the hKv1.2 channel) turned out to be 28.5 ± 6.3 nM. Moreover, the “inhibition of hKv1.6 channel currents” value on hKv1.6 channel came to 11.0 ± 1.2%. At rKv4.2 channel, the “inhibition of rKv4.2 channel currents” value was found to be 11.0 ± 1.8%. Moreover, the “inhibition of hKv1.2-P359S channel currents” value against hKv1.2-P359S amounted to 72.4 ± 5.5%. Moreover, the “thermal stability of secondary structure” value in series [1] is given as “thermally stable”.

Source of the values: PMC8472965, “BmK86-P1, a New Degradation Peptide with Desirable Thermostability and Kv1.2 Channel-Specific Activity from Traditional Chinese Scorpion Medicinal Material” (Toxins, 2021).
